16 compounds from US12612424B2, “HPK1 inhibitors and uses thereof” (Regor Pharmaceuticals, Inc., priority 2019, dated 2026) can be followed below.

One assay has as its target HPK1 (Homo sapiens, UniProt Q92918). As to the kind of experiment: HPK1 biochemical assay (ADP-GLO Kinase Assay). The text has this:
IC50 values of any compounds can be determined accordingly over a range of inhibitor concentrations. In addition, the inhibitory effect of the compounds can also be assess using a biological assay, to determine the effect of the compounds on cytokine secretion by T cells following TCR and CD28 stimulation.
Biology Example 1 HPK1 Biochemical Assay
This example used the ADP-GLO™ Kinase Assay to measure the effect of potential HPK1 inhibitor compounds on HPK1 kinase activity.
The ADP-GLO™ Kinase Assay (Promega Corp., Madison, WI) measures ADP formed from a kinase reaction. According to the manufacture, the ADP formed in a kinase assay is first converted into ATP, which is then used to generate light in a luciferase reaction. The luminescence generated correlates with kinase activity. An exemplary experimental setting is described below, though minor adjustments can be made in individual assays.
Serial 3-fold dilution of compounds from 10 μM (top concentration) to 0.508 nM (lowest concentration). Positive control is 10 μM Reference+enzyme+substrate. Negative control is 1% DMSO+enzyme+substrate.
• 1. Buffer Preparation • 40 mM Tris pH7.5; 20 mM MgCl2, 0.1 mg/ml BSA, 50 μM DTT Buffer Stock
Add 20 mL 1M Tris and 10 mL 1M MgCl2 to 470 mL ddH2O to get buffer stock, and stock at RT. • 2. Preparing Fresh 1* Assay Buffer
• 3. Compounds Preparation • 1) The compounds were diluted to 1 mM, by mixing 10 μL of 10 mM respective compound stocks with 90 μL of DMSO. • 2) The compounds were then diluted 3-fold for 10 doses (5 μL to 10 μL dilution) by BRAVO. The top compound conc. was 1 mM (100×), DMSO Conc. was 100%. • 3) Transfer 100 nL of each diluted compound sample to 384-well plate (Corning-4512) by ECHO. • 4) Centrifuge the plate at 1,500 rpm for 1 minute. • 4. Preparation of 2×ATP-MBP Mixture: • 20 μM ATP, 0.2 μg/μL MBP in Kinase Buffer (final concentration: 10 μM ATP, 0.1 MBP)
• 5. Preparation of 2×HPK1 working solution with assay buffer. • HPK1 final concentration was 0.6 ng/μL. […] Incubate at 25° C. for 40 min. • 11. Record luminescence signal on an Envision plate reader (384-CTG). 5. Data Analysis
The percent (%) inhibition at each concentration of compound is calculated based on and relative to the signal in the High and Low control wells contained within each assay plate. […] The concentrations and % inhibition values for tested compounds were plotted and the concentration of compound required for 50% inhibition (IC50) was determined with a Three-parameter logistic dose response equation. The endpoint value (IC50) for the reference peptide/compound was evaluated in each experiment as a quality control measure. If the endpoint value was within 3-fold of the expected value, then the experiment was deemed acceptable.
On the technique in general: ADP-Glo turns the ADP formed in a reaction into a luminescent signal.

The next assay addresses T1, JAK3 (Homo sapiens, UniProt P52333).
T1 construct: purchased Thermo fisher PV3855
Description: JAK3 biochemical assay (ADP-GLO Kinase Assay). The following applies: for JAKs/HPK1 IC50 Ratio, B* / JAKs/HPK1 IC50 Ratio, N*: ratio of JAK3 IC50 to HPK1 IC50; for JAKs/HPK1 IC50 Ratio, B*: first testing facility; for JAKs/HPK1 IC50 Ratio, N*: second testing facility. The method, then: Biology Example 4 JAK3 Biochemical Assay
This example used the ADP-GLO™ Kinase Assay to measure the effect of potential HPK1 inhibitor compounds on JAK3 kinase activity. An exemplary experimental setting is described below, though minor adjustments can be made in individual assays.
3. Procedures • 1. Prepare JAK3 kinase buffer • Freshly adding DTT and BSA into Buffer (Final Conc.: 40 mM Tris pH7.5; 20 mM MgCl2, 0.1 mg/ml BSA, 50 μM DTT).
• 2. Compounds Preparation • For tested compounds: compounds were diluted to 1 mM, by mixing 5 μL of 10 mM compound stocks to 45 μL DMSO. The compounds solutions were then serially diluted 3-fold for 10 doses. The top compound concentration was 1 mM (100×), DMSO concentration was 100%. • 50 nL of each of 10 doses of diluted compound were added to 384-well assay plate (Corning #4512) by ECHO. • For positive control, 50 nL of 1 mM reference compound were added to 384-well assay plate (Corning #4512) by ECHO. • For negative control: 50 nL of DMSO was transferred into 384-well assay plate as a negative control. • The assay plate was centrifuged at 1,500 rpm for 1 minute. • 3. Compounds were Transferred by ECHO Following the Layout Below: • Reference and test compounds 1-15: serial 3-fold dilution from 10 μM to 0.508 nM (10 doses); negative control is 0.78 ng JAK3, 4 μM ATP & 0.2 μg/μL poly, 1% DMSO; positive control is the top dose of the reference compound, 0.78 ng JAK3, 0.2 μg/μL Poly(E4Y1), 4 μMATP, 1% DMSO. • 4. Add 2.5 μL/well of 2×JAK3 working solution using pipette (Thermo, 30 μL multi-channel), Centrifuge at 1,500 rpm for 1 minute. • 5. Add 2.5 μL/well of 2×ATP-Poly(E4Y1) working mixture using pipette (Thermo, 30 μL multi-channel), Centrifuge at 1,500 rpm for 1 minute. • 6. Incubate the assay plate at 25° C. for 60 min. • 7. Add 5 μL/well ADP-GLO™ Reagent by BRAVO to stop the kinase reaction and deplete the unconsumed ATP after 1 hour. Centrifuge at 1,500 rpm for 1 minute. Incubate at 25° C. for 40 min. • 8. Add 10 uL of Kinase Detection Reagent by BRAVO to convert ADP to ATP. Centrifuge at 1,500 rpm for 1 minute. Incubate at 25° C. for 40 min. • 9. Record luminescence signal on an Envision plate reader (384-USL). • 10. Process data using XL-fit. Inhibition %=[1-(test well−Negative control)/(positive control−Negative control)]*100%. 5. Data Analysis
The percent (%) inhibition at each concentration of compound is calculated based on and relative to the signal in the Negative and Positive control wells contained within each assay plate. The Negative control wells served as 0% inhibition, and the Positive control wells served as 100% inhibition. The concentrations and % inhibition values for tested compounds are plotted and the concentration of compound required for 50% inhibition (IC50) is determined with a Three-parameter logistic dose response equation. The endpoint value (IC50) for the reference peptide/compound is evaluated in each experiment as a quality control measure. If the endpoint value was within 3-fold of the expected value then the experiment was deemed acceptable.

Setting [1] is: B*: testing performed in a first testing facility, read-out: HPK1 IC50 (nM) Relative, B*.
Where [2] appears, read: B*: testing performed in a first testing facility, read-out: JAK3 IC50 (nM) Relative, B*.
[3] abbreviates: N*: testing performed in a second testing facility, read-out: HPK1 IC50 (nM) Relative, N*.
[4] abbreviates: N*: testing performed in a second testing facility, read-out: JAK3 IC50 (nM) Relative, N*.

Read-outs that look alike come from different tables or passages of the source.

As a reminder, the IC50 is the concentration at which inhibition is half-maximal.

Chain of HPK1 (Q92918 whole entry): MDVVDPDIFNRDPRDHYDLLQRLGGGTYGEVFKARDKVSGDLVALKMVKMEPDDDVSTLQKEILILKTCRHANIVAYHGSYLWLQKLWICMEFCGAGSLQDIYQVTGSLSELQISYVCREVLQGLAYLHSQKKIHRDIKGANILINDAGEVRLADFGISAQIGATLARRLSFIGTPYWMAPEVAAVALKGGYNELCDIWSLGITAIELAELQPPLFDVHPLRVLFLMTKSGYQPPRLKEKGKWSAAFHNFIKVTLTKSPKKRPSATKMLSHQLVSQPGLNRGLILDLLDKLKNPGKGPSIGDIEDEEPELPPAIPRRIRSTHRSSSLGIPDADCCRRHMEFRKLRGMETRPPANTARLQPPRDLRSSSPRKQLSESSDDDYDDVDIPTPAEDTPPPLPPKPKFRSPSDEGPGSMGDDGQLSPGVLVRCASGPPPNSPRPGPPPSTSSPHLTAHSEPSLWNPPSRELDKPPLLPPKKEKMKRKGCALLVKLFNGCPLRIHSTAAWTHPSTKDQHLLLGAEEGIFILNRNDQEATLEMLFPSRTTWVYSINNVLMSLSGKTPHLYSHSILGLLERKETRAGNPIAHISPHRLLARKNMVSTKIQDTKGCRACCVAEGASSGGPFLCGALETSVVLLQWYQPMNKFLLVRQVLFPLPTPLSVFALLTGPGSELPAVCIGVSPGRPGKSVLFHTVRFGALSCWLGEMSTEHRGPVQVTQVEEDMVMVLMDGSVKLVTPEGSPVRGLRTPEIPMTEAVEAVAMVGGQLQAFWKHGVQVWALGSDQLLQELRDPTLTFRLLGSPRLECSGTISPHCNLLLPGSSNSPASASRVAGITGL
T1 sequence (P52333 781-1124 limits assumed): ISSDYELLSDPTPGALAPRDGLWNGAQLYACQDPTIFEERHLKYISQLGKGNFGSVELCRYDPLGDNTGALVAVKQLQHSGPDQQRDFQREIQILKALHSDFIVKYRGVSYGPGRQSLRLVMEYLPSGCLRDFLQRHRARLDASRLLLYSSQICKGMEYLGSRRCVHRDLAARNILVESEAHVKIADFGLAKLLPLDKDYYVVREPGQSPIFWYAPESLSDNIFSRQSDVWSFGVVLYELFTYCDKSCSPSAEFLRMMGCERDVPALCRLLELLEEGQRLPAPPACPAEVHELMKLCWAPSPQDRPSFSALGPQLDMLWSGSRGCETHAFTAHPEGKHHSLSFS

Turning to `CCc1c[nH]c2ncc(-c3ccc(N)c(P(C)(C)=O)n3)cc12` [Example 75, (3-Amino-6-(3-ethyl-1H-pyrrolo[2,3-b]pyridin-5-yl)pyridin-2-yl)dimethylphosphine oxide], the IC50 on HPK1 (setting [1]) was not above 100 nM; on JAK3 (setting [2]) it was more than 1000 nM. At JAK3, the “JAKs/HPK1 IC50 Ratio, B*” value is on record as 59.

On to `CCc1c[nH]c2ncc(-c3ccc(F)c(P(C)(C)=O)c3N)cc12` [Example 60, (2-Amino-3-(3-ethyl-1H-pyrrolo[2,3-b]pyridin-5-yl)-6-fluorophenyl)dimethylphosphine oxide], for which the IC50 on HPK1 (setting [1]) was not above 100 nM; at JAK3 (setting [2]), more than 1000 nM. Besides, at JAK3, the “JAKs/HPK1 IC50 Ratio, B*” value was found to be 25.

Consider `COc1cc2c(cc1Nc1ncc(Cl)c(-n3cc(C4(C(=O)O)CC4)c4ccccc43)n1)CN(C)CC2` [Example 143], for which the IC50 at HPK1 (setting [1]) is not above 100 nM; on JAK3 (setting [2]), more than 1000 nM. Besides, the “JAKs/HPK1 IC50 Ratio, B*” value on JAK3 came to 433.

Consider `COc1cc2c(cc1Nc1ncc3cc(C(=O)O)n(-c4ccccc4)c3n1)CN(C)CC2` [Example 165, 2-((6-Methoxy-2-methyl-1,2,3,4-tetrahydroisoquinolin-7-yl)amino)-7-phenyl-7H-pyrrolo[2,3-d]pyrimidine-6-carboxylic acid], for which the IC50 on HPK1 (setting [1]) was not above 100 nM; at JAK3 (setting [2]), more than 1000 nM. In addition, on JAK3, the “JAKs/HPK1 IC50 Ratio, B*” value came out at 421.

For the compound `CCc1c[nH]c2ncc(-c3ccc(C(=O)OC)c(P(C)(C)=O)c3)cc12` [Example 72, Methyl 2-(dimethylphosphoryl)-4-(3-ethyl-1H-pyrrolo[2,3-b]pyridin-5-yl)benzoate], the IC50 at HPK1 (setting [1]) is 100 to 500 nM; at JAK3 (setting [2]), more than 1000 nM. The “JAKs/HPK1 IC50 Ratio, B*” value on JAK3 worked out at 11.

Turning to `COc1cc2c(cc1Nc1ncc(Cl)c(N3CCn4c3cccc4=O)n1)CN(C)CC2` [Example 31], the IC50 is 100 to 500 nM at HPK1 (setting [1]) and more than 1000 nM at JAK3 (setting [2]). The “JAKs/HPK1 IC50 Ratio, B*” value on JAK3 is 31.

With `CCc1c[nH]c2ncc(-c3ccc(N)c(P(C)(C)=O)c3)cc12` [Example 70, (2-Amino-5-(3-ethyl-1H-pyrrolo[2,3-b]pyridin-5-yl)phenyl)dimethylphosphine oxide], the IC50 at HPK1 (setting [1]) was not above 100 nM; at HPK1 (setting [3]), not above 100 nM; on JAK3 (setting [2]), 500 to 1000 nM; on JAK3 (setting [4]), 500 to 1000 nM. Further, the “JAKs/HPK1 IC50 Ratio, B*” value on JAK3 stood at 70. Also, the “JAKs/HPK1 IC50 Ratio, N*” value on JAK3 came to 50.

In the case of `COc1nc2c(cc1Nc1ncc(Cl)c(N3CC(C)(CC(=O)O)c4ccccc43)n1)CN(C)CC2` (stereo not shown) [Example 155], the IC50 on HPK1 (setting [1]) was not above 100 nM; at JAK3 (setting [2]), more than 1000 nM. The “JAKs/HPK1 IC50 Ratio, B*” value on JAK3 is on record as more than 111.

Take `COc1cc2c(cc1Nc1ncc3ccn(-c4ccccc4C(=O)N(C)C)c3n1)CN(C)CC2` [Example 38]: the concentration for half-maximal inhibition (IC50) at HPK1 (setting [1]) was 100 to 500 nM; at HPK1 (setting [3]), not above 100 nM; on JAK3 (setting [4]) it was more than 1000 nM. In addition, on JAK3, the “JAKs/HPK1 IC50 Ratio, N*” value was more than 163.

On to `CCc1c[nH]c2ncc(-c3cc(NC(C)=O)cc(P(C)(C)=O)c3)cc12` [Example 68, N-(3-(dimethylphosphoryl)-5-(3-ethyl-1H-pyrrolo[2,3-b]pyridin-5-yl)phenyl)acetamide], for which the IC50 was 500 to 1000 nM at HPK1 (setting [1]) and more than 1000 nM on JAK3 (setting [2]). For the same compound, at JAK3, the “JAKs/HPK1 IC50 Ratio, B*” value is on record as 2.

Consider `CCc1c[nH]c2ncc(-c3ccc(NC(C)=O)c(P(C)(C)=O)c3)cc12` [Example 58, N-(2-(dimethylphosphoryl)-4-(3-ethyl-1H-pyrrolo[2,3-b]pyridin-5-yl)phenyl)acetamide], for which the IC50 at HPK1 (setting [1]) is not above 100 nM; at JAK3 (setting [2]), 100 to 500 nM. Also, on JAK3, the “JAKs/HPK1 IC50 Ratio, B*” value came to 4.

In the case of `CCc1c[nH]c2ncc(-c3ccc(C)c(P(C)(C)=O)c3F)cc12` [Example 62, (3-(3-Ethyl-1H-pyrrolo[2,3-b]pyridin-5-yl)-2-fluoro-6-methylphenyl)dimethylphosphine oxide], the results for the IC50 at HPK1 (setting [1]) and on JAK3 (setting [2]) were not above 100 nM and more than 1000 nM, respectively. Also, the “JAKs/HPK1 IC50 Ratio, B*” value at JAK3 is 54.

For the compound `CCc1c[nH]c2ncc(-c3ccc(C(F)(F)F)c(P(C)(C)=O)c3)cc12` [Example 78, (5-(3-Ethyl-1H-pyrrolo[2,3-b]pyridin-5-yl)-2-(trifluoromethyl)phenyl)dimethylphosphine oxide], the IC50 is 500 to 1000 nM at HPK1 (setting [1]) and more than 1000 nM on JAK3 (setting [2]). Besides, the “JAKs/HPK1 IC50 Ratio, B*” value at JAK3 is given as more than 15.

As to `COc1cc2c(cc1Nc1ncc3ccn(-c4ccccc4P(C)(C)=O)c3n1)CN(C)CC2` [Example 39, (2-(2-((6-Methoxy-2-methyl-1,2,3,4-tetrahydroisoquinolin-7-yl)amino)-7H-pyrrolo[2,3-d]pyrimidin-7-yl)phenyl)dimethylphosphine oxide], the IC50 on HPK1 (setting [1]) was 500 to 1000 nM; on JAK3 (setting [2]), more than 1000 nM. Besides, the “JAKs/HPK1 IC50 Ratio, B*” value at JAK3 was more than 18.

In the case of `COc1cc2c(cc1Nc1ncc(Cl)c(N3CCc4c(OC)cccc43)n1)CN(C)CC2` [Example 89, N-(5-chloro-4-(4-methoxyindolin-1-yl)pyrimidin-2-yl)-6-methoxy-2-methyl-1,2,3,4-tetrahydroisoquinolin-7-amine], the IC50 at HPK1 (setting [1]) is not above 100 nM; on JAK3 (setting [2]) it was more than 1000 nM. Moreover, the “JAKs/HPK1 IC50 Ratio, B*” value at JAK3 came to 944.

For the compound `COc1cc2c(cc1Nc1ncc(Cl)c(N3CC(C(=O)O)C4(CCOCC4)C3)n1)CN(C)CC2` (stereo not shown) [Example 168], the figures for the IC50 at HPK1 (setting [1]) and at JAK3 (setting [2]) were not above 100 nM and more than 1000 nM, respectively. Further, the “JAKs/HPK1 IC50 Ratio, B*” value on JAK3 turned out to be 737.
